{
  "source": "ChEMBL document CHEMBL1201862",
  "about": "“PubChem BioAssay data set” (2004)",
  "key": {"[1]": {"assay": "Shn3 3'UTR reporter inhibitors, dose response, cell-based, Clone20 osteoblasts, firefly luciferase, cherry-picked (AID 624132)", "format": "functional"}, "[2]": {"target": "T1, COUP transcription factor 2 (Homo sapiens, UniProt P24468)", "T1 sequence (P24468 whole entry)": "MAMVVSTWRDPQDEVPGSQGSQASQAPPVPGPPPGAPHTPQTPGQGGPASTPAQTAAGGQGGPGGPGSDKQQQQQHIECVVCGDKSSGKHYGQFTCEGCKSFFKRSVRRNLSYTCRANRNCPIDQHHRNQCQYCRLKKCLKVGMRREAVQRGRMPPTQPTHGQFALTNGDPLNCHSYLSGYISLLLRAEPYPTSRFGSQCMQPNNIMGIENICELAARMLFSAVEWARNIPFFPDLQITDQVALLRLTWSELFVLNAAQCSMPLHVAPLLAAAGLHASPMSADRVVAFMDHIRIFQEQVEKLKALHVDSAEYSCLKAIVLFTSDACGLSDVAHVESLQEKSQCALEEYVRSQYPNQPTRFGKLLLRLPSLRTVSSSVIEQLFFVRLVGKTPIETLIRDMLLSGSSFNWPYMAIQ", "assay": "Luminescence-based cell-based high throughput dose response assay to identify inhibitors of COUP-TFII (NR2F2).", "format": "functional"}, "[3]": {"assay": "control 3'UTR Renilla luciferase suppression, dose response, counter-screen for Shn3 inhibitor project, cell-based, Clone20-Shn3RL, cherry-picked (AID 624133)", "format": "functional"}, "[4]": {"assay": "HepG2 cell cytotoxicity, dose response, cytotoxicity control for Shn3 inhibitor project, CellTiter-Glo, cherry-picked (AID 624134)", "format": "functional, cell-based"}, "Steroidogenic factor 1": {"target": "Steroidogenic factor 1 (Homo sapiens, UniProt Q13285)", "sequence (Q13285 whole entry)": "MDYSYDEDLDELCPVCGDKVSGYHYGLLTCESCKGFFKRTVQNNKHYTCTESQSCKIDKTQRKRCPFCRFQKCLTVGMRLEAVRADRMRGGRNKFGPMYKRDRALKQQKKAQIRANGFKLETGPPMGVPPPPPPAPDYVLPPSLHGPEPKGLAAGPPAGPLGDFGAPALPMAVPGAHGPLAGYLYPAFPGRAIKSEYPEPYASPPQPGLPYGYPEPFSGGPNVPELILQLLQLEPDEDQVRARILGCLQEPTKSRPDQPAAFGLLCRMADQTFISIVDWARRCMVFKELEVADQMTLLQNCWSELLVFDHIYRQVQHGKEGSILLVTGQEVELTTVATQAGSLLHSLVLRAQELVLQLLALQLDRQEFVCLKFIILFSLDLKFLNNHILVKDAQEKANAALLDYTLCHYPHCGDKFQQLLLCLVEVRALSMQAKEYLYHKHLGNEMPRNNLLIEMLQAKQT", "assay": "Counterscreen for inverse agonists of the liver receptor homolog-1 (LRH-1; NR5A2): Luminescence-based cell-based high throughput dose response assay to identify inverse agonists of the Steroidogenic Factor 1 Nuclear Receptor (SF1; NR5A1).", "format": "functional"}, "[5]": {"assay": "StAR promoter reporter inhibition counter-screen, dose response, counter-screen for LRH-1 inverse agonist project, cell-based, luminescence, luciferase reporter (AID 651969)", "format": "functional"}, "[6]": {"target": "Nuclear receptor subfamily 5 group A member 2 (Homo sapiens, UniProt O00482)", "sequence (O00482 whole entry)": "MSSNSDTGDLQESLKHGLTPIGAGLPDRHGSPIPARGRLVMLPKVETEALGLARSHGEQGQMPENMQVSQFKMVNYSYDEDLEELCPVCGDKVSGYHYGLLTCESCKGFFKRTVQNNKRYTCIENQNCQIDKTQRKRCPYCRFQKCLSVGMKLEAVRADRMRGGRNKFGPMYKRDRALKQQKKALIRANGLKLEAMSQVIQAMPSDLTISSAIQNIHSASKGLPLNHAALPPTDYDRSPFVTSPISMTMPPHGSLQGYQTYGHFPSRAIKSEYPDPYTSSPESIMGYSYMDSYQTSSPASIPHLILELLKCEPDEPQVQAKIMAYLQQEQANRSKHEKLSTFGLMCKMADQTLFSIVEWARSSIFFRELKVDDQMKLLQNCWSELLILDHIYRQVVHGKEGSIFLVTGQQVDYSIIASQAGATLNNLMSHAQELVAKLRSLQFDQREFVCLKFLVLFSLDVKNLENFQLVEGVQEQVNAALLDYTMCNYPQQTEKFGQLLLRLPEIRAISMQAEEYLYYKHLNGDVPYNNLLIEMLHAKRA", "format": "functional, cell-based"}, "[7]": {"target": "T2, Sentrin-specific protease 1 (Homo sapiens, UniProt Q9P0U3)", "T2 sequence (Q9P0U3 whole entry)": "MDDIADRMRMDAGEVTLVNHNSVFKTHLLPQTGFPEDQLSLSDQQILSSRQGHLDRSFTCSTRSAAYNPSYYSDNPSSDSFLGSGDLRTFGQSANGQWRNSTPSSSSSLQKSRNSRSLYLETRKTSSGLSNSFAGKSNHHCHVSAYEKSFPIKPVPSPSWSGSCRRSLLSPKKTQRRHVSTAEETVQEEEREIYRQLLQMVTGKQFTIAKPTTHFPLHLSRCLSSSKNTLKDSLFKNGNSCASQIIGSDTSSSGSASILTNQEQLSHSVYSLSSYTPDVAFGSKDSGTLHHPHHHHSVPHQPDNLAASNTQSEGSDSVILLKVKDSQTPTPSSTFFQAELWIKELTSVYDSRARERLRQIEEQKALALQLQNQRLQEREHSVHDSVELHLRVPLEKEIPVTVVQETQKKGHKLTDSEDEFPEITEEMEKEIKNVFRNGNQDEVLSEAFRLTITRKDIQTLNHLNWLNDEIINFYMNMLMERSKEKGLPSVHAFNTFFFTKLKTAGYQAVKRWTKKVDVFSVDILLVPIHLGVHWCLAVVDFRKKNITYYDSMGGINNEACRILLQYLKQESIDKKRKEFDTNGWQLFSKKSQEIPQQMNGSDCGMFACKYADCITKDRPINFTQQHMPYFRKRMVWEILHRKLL", "assay": "potency of human SENP1 inhibitors, dose response, biochemical, kinetic FRET (AID 651697)", "format": "functional", "details": "read-out: IC50_Mean"}, "[8]": {"target": "T2, Sentrin-specific protease 1", "assay": "Dose response confirmation of small molecule inhibitors of the catalytic domain of the SUMO protease, SENP1 in a FRET assay.", "format": "functional", "details": "read-out: IC50_Mean"}, "[9]": {"assay": "NIH:OVCAR-3 ovarian cancer cell cytotoxicity, dose response, PAX8 inhibitor project, plate reader, dry powder samples (AID 743044)", "format": "functional, cell-based"}, "[10]": {"assay": "A2780 ovarian cancer cell cytotoxicity, dose response, cytotoxicity control, plate reader, dry powder samples (AID 743046)", "format": "functional, cell-based"}, "Paired box protein Pax-8": {"target": "Paired box protein Pax-8 (Homo sapiens, UniProt Q06710)", "sequence (Q06710 whole entry)": "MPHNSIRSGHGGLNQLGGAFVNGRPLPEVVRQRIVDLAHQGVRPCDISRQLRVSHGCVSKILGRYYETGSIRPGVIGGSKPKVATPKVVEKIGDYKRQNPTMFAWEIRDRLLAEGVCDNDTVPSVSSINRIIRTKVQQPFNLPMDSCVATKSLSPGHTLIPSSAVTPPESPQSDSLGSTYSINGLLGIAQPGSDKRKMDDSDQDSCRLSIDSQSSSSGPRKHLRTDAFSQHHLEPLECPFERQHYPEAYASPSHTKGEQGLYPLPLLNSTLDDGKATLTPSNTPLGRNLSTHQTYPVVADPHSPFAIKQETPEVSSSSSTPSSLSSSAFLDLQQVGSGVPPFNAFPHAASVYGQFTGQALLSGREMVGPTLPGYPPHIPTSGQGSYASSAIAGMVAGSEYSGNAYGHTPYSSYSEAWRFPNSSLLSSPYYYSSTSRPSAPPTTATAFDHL", "assay": "inhibitors of PAX8-driven TPO luciferase reporter, dose response, RMG-I cells, cherry-pick (AID 687027);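 also: luciferase reporter driven by Pax8 target thyroperoxidase promoter measured by SteadyGlo luminescence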", "format": "functional, cell-based"}, "[11]": {"assay": "cytotoxicity in OVCAR8 ovarian cancer cells, dose response, PAX8 project, cell-based, plate reader, dry powder samples (AID 743197)", "format": "functional", "details": "OVCAR-8"}, "[12]": {"target": "T3, Small ubiquitin-related modifier 1 (Homo sapiens, UniProt P63165)", "T3 sequence (P63165 whole entry)": "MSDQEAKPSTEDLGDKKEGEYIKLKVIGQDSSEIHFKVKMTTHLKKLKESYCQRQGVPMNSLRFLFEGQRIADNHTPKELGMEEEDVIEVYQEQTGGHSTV", "assay": "inhibitors of SUMO1 peptide binding, dose response, biochemical, fluorescence polarization, uHTS hits (AID 624382)", "format": "functional", "details": "read-out: IC50_Mean"}, "[13]": {"target": "T3, Small ubiquitin-related modifier 1", "assay": "inhibitors of SUMO1 partner interactions, dose response, biochemical, FRET (AID 624383)", "format": "functional", "details": "read-out: IC50_Mean"}, "Caspase-6": {"target": "T4, Caspase-6 (Homo sapiens, UniProt P55212)", "T4 sequence (P55212 whole entry)": "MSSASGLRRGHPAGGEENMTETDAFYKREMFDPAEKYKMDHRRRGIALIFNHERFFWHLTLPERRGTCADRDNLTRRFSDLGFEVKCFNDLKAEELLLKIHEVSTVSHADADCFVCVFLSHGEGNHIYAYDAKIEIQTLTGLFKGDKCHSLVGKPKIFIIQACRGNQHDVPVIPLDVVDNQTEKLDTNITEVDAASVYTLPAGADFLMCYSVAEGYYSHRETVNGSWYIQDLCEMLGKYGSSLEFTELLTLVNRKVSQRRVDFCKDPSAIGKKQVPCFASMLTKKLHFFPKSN", "assay": "human caspase-6 inhibitors, dose response, biochemical, VEID-R110 fluorescence, cherry-pick (AID 720632)"}, "[14]": {"assay": "ADAM10 inhibitors, peptide cleavage, dose response, biochemical, QFRET (AID 743254);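 also: ADAM10 enzyme with the DM2 quenched FRET peptide as substrate; EDANS fluorescence gain as the protease cuts the substrate; inhibitor potency against ADAM10 proteolytic activity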"}, "[15]": {"target": "Disintegrin and metalloproteinase domain-containing protein 17 (Homo sapiens, UniProt P78536)", "sequence (P78536 whole entry, the tested form may be a part)": "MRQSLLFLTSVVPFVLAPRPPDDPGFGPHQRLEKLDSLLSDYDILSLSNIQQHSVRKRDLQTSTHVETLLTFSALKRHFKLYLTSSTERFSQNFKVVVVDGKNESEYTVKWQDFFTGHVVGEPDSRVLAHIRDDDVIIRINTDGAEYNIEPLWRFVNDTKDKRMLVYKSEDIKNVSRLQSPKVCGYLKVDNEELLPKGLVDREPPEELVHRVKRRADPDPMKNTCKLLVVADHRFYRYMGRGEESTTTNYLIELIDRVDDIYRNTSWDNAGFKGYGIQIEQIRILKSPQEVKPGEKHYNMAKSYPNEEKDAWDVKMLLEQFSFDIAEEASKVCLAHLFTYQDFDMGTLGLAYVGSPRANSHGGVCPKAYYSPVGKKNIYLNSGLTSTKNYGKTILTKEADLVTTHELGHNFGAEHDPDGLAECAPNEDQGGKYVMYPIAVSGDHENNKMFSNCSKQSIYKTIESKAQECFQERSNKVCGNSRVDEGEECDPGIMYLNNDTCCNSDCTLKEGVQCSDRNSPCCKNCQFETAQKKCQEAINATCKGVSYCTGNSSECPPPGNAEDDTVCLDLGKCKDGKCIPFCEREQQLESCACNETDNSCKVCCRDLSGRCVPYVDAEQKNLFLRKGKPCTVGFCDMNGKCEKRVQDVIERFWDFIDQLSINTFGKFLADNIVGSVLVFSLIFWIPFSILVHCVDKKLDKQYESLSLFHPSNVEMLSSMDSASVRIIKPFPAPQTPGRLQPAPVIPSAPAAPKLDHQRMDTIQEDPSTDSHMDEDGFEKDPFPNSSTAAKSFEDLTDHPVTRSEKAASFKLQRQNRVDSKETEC", "assay": "ADAM17 protease inhibitors, dose response, counter-screen for ADAM10 exosite inhibitor project, biochemical, quenched FRET substrate (AID 743253)"}, "Albumin": {"target": "Albumin (Bos taurus, UniProt P02769)", "sequence (P02769 whole entry)": "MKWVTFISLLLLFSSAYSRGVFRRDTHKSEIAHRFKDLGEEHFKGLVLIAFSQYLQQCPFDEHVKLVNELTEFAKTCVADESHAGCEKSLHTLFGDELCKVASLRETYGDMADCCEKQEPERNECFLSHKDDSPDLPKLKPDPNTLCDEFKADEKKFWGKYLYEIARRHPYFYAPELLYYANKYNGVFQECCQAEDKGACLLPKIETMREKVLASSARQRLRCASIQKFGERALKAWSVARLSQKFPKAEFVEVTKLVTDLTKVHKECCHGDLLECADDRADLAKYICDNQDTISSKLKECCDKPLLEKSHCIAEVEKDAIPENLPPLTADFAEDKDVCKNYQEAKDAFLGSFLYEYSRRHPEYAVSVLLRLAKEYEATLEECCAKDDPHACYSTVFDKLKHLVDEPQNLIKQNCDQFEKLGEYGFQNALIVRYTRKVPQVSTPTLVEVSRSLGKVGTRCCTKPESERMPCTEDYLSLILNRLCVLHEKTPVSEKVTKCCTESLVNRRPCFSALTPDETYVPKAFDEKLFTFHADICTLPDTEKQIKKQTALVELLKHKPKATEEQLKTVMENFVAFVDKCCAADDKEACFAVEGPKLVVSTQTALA", "assay": "Counterscreen for inhibitors of T-cell receptor (TCR)-CD3 interaction: Fluorescence-based biochemical high throughput dose response assay to identify inhibitors of T-cell receptor (TCR)-CD3 interaction using a TAMRA-labeled BSA probe.", "format": "functional"}, "[16]": {"target": "T5, Methionyl-tRNA synthetase, putative (Trypanosoma brucei brucei, UniProt Q38C91)", "T5 sequence (Q38C91 whole entry)": "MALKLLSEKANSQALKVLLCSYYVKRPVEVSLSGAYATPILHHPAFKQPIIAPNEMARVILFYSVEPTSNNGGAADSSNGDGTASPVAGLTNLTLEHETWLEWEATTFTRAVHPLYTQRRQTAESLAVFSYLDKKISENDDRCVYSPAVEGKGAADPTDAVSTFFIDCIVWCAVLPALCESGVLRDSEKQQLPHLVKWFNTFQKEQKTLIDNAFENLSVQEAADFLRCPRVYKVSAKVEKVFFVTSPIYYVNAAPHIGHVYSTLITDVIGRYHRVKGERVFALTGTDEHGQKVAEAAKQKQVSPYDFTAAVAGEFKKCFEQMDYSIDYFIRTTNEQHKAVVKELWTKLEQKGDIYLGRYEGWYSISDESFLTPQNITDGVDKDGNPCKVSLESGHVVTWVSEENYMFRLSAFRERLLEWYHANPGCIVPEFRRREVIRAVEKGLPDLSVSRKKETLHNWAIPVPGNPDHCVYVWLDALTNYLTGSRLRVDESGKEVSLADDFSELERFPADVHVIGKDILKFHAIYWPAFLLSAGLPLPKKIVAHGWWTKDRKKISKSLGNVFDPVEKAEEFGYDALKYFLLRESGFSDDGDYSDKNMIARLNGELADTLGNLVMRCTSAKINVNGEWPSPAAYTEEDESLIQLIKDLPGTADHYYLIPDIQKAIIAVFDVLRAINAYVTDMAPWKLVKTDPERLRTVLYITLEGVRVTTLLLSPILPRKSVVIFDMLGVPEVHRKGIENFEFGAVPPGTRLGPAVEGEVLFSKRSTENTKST", "format": "functional, Trypanosoma brucei brucei strain 927/4 GUTat10.1"}, "[17]": {"assay": "Counterscreen for inhibitors of Trypanosoma brucei methionyl tRNA synthetase (MetRS): Luminescence-based cell-based high throughput dose response assay to identify compounds that are cytotoxic to Jurkat human T lymphocyte cells.", "format": "functional"}, "[18]": {"target": "T5, Methionyl-tRNA synthetase, putative", "format": "functional, Trypanosoma brucei brucei strain 927/4 GUTat10.1", "remark": "listed apart in the source"}},
  "note": "Active and inactive are the calls of the source.",
  "data": [
    {"smiles": "Cc1cc(/C=C2/SC(=S)N(c3cccc(Cl)c3)C2=O)c(C)n1-c1cccnc1", "values": [
      {"measurement": "AC50", "setting": "[1]", "result": "0.979 µM (active)"},
      {"measurement": "IC50", "setting": "[2]", "result": "5.65 µM (active)"},
      {"measurement": "AC50", "setting": "[3]", "result": "3.55 µM (active)"},
      {"measurement": "AC50", "setting": "[4]", "result": "47.8 µM (active)"}
    ]},
    {"smiles": "O=C(CSc1nnc(CNC(=O)c2c(F)cccc2F)o1)Nc1ccc2c(c1)OCCO2", "values": [
      {"measurement": "IC50", "setting": "Steroidogenic factor 1", "result": "31 µM (inactive)"},
      {"measurement": "IC50", "setting": "[5]", "result": "35.9 µM (inactive)"},
      {"measurement": "IC50", "setting": "[6]", "result": "35.9 µM (inactive)"}
    ]},
    {"smiles": "Cc1cccc(C)c1-n1nnnc1-c1nc2cc3ccccc3cc2nc1O", "values": [
      {"measurement": "IC50", "setting": "[7]", "result": "7.1 µM (active)"},
      {"measurement": "IC50", "setting": "[8]", "result": "1.93 µM (active)"}
    ]},
    {"smiles": "C[C@H](CO)N1C[C@H](C)[C@@H](CN(C)Cc2ccc(C(F)(F)F)cc2)OCCCC[C@H](C)Oc2ccc(NC(=O)Nc3ccc(F)cc3)cc2C1=O", "values": [
      {"measurement": "AC50", "setting": "[9]", "result": "45.4 µM (active)"},
      {"measurement": "AC50", "setting": "[10]", "result": "46.6 µM (active)"},
      {"measurement": "AC50", "setting": "Paired box protein Pax-8", "result": "9.37 µM (active)"},
      {"measurement": "AC50", "setting": "[11]", "result": "39.2 µM (active)"}
    ]},
    {"smiles": "COc1ccc(Cl)cc1Nc1nc(-c2sc(NC(=O)C(C)(C)C)nc2C)cs1", "values": [
      {"measurement": "IC50", "setting": "[12]", "result": "> 66.6 µM (inactive)"},
      {"measurement": "IC50", "setting": "[13]", "result": "7.99 µM (active)"},
      {"measurement": "IC50", "setting": "[2]", "result": "11.2 µM (inactive)"}
    ]},
    {"smiles": "COC(=O)c1ccc(-c2nc(O)c(C)s2)cc1", "values": [
      {"measurement": "IC50", "setting": "[7]", "result": "7.31 µM (active)"},
      {"measurement": "IC50", "setting": "[8]", "result": "8.08 µM (active)"}
    ]},
    {"smiles": "C[C@@H]1CN([C@@H](C)CO)C(=O)c2cc(NC(=O)Nc3ccccc3)ccc2O[C@@H](C)CCCCO[C@H]1CN(C)Cc1ccc(Cl)c(Cl)c1", "values": [
      {"measurement": "AC50", "setting": "[10]", "result": "3.59 µM (active)"}
    ]},
    {"smiles": "O=C(c1ccncc1)N1CCCCN2[C@H](C1)[C@H](c1ccc(C#Cc3ccccn3)cc1)[C@@H]2CO", "values": [
      {"measurement": "AC50", "setting": "Caspase-6", "result": "50.4 µM (active)"}
    ]},
    {"smiles": "C[C@@H]1CCCCO[C@@H](CN(C)C(=O)Nc2ccc3c(c2)OCO3)[C@@H](C)CN([C@H](C)CO)C(=O)c2cc(NC(=O)Nc3ccc(C(F)(F)F)cc3)ccc2O1", "values": [
      {"measurement": "IC50", "setting": "[14]", "result": "> 69.5 µM (inactive)"},
      {"measurement": "IC50", "setting": "[15]", "result": "> 69.5 µM (inactive)"}
    ]},
    {"smiles": "O=C(CSc1nc2ccccc2s1)N/N=C/c1cc([N+](=O)[O-])ccc1O", "values": [
      {"measurement": "IC50", "setting": "Albumin", "result": "> 94.1 µM (inactive)"}
    ]},
    {"smiles": "O=C(CN1CCS/C1=N/Cc1ccccc1)c1ccc(Cl)c(Cl)c1", "values": [
      {"measurement": "IC50", "setting": "[16]", "result": "2.67 µM (active)"},
      {"measurement": "IC50", "setting": "[17]", "result": "48.2 µM (inactive)"},
      {"measurement": "IC50", "setting": "[18]", "result": "3.92 µM (active)"}
    ]}
  ]
}
